The nature of assay [1]: cells. Type of assay: functional, cell-based.
A short description of assay [2]: cells. Type of assay: functional, cell-based. This is another data set of the same source.
The target in assay [3] is Large T antigen (Simian virus 40, UniProt P03070). Type of assay: functional, Betapolyomavirus macacae.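 Further: Confirmatory-stage PubChem screen for compounds that inhibit SV40 T antigen.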
Assay [4] concerns the target T1, Zinc finger protein mex-5 (Caenorhabditis elegans, UniProt Q9XUB2).
T1 sequence (Q9XUB2 whole entry): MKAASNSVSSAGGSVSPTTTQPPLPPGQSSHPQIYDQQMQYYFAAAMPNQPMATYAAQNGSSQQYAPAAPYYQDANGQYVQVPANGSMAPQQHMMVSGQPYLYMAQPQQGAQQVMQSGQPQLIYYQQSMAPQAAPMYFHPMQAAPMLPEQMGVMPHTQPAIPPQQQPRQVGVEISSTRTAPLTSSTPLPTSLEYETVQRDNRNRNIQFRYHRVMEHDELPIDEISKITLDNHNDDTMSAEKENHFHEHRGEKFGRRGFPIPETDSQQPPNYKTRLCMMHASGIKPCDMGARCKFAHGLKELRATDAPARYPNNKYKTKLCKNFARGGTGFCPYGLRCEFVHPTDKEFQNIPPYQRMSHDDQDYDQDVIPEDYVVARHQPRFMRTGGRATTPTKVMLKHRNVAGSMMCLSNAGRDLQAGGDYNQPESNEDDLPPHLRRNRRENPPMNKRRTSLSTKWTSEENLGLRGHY
The assay can be described thus: potency of MEX-5 RNA-binding blockers – biochemical, C. elegans, fluorescence polarization, dose response (AID 1960).

For assay [5], the target named is T2, RNA-binding protein pos-1 (Caenorhabditis elegans, UniProt G5EF15).
T2 sequence (G5EF15 whole entry): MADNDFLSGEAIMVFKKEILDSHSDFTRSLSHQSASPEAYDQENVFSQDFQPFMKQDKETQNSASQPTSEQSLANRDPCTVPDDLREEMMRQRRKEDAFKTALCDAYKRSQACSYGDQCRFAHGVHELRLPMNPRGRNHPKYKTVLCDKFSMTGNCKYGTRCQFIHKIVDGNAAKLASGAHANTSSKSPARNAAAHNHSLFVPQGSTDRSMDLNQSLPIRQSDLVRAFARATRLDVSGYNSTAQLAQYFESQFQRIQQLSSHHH
The assay can be described thus: disruptors of C. elegans POS-1 RNA interaction – biochemical, fluorescence polarization, dose response (AID 1964).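 Further: purified POS-1 fused to maltose binding protein made in E. coli; potency of compounds blocking POS-1 binding to fluorescent RNA.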

Assay [6] is described as follows: HIV-1 AD8 envelope cell-cell fusion blockers – cherry-pick, dose response (AID 652062).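 Further: luciferase signal from cell-cell fusion driven by HIV-1 clade B AD8 Env; potency is for inhibitors of fusion seen as a drop in luminescence.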 In kind it is functional, cell-based.
In assay [7] the target is T3, Carboxy-terminal domain RNA polymerase II polypeptide A small phosphatase 1 (Homo sapiens, UniProt Q9GZU7).
T3 sequence (Q9GZU7 whole entry): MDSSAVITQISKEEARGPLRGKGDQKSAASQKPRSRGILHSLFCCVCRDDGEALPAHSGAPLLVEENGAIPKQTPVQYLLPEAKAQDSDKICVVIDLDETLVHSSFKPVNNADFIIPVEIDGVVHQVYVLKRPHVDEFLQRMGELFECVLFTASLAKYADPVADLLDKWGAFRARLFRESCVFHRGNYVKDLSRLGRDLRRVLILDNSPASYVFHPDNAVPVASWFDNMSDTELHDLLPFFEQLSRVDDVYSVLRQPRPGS
The assay is described as follows: CTDSP1 inhibitors, concentration-response, biochemical, absorbance readout, ultra-high-throughput screen actives (AID 540297). In kind it is functional.

A short description of assay [8]: P. falciparum Dd2 growth inhibitors, dose response, SYBR Green, cherry-picked samples (AID 1159567). Type of assay: functional, cell-based.
Assay [9] addresses T4, Protein skinhead-1 (Caenorhabditis elegans, UniProt P34707).
T4 sequence (P34707 whole entry): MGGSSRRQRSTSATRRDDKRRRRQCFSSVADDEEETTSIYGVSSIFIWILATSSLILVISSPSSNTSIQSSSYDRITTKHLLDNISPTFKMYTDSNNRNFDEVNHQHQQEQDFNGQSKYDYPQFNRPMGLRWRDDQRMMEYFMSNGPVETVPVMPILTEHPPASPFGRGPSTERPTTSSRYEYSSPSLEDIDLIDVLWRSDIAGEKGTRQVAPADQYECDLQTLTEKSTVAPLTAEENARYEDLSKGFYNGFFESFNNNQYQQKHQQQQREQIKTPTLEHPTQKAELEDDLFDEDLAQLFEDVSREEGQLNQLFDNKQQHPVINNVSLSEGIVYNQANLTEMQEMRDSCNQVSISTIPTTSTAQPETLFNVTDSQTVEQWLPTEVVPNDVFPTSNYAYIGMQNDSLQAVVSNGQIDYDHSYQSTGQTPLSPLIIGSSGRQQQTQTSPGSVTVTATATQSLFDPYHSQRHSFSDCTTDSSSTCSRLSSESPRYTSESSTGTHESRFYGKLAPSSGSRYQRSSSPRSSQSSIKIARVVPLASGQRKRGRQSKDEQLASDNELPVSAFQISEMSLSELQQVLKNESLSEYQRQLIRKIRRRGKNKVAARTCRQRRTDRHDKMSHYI
In kind it is functional.

Assay [10] addresses T5, Rac GTPase-activating protein 1 (Homo sapiens, UniProt Q9H0H5).
T5 sequence (Q9H0H5 whole entry): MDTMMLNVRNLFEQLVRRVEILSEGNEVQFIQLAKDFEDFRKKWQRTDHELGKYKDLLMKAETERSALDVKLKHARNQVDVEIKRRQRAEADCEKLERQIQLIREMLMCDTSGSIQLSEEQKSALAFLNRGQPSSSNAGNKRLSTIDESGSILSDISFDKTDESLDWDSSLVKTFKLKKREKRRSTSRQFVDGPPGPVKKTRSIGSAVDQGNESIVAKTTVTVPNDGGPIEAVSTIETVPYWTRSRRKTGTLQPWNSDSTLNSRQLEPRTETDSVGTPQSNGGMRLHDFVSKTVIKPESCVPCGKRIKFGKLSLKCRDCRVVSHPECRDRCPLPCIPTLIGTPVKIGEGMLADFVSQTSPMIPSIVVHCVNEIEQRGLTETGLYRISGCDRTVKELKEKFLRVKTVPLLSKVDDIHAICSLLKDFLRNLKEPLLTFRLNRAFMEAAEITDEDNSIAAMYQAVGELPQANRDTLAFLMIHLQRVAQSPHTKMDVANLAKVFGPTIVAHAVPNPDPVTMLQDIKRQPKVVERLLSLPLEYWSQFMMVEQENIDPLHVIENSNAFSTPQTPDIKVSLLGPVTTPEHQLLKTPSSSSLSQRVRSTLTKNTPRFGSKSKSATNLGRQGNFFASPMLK
The assay can be described thus: blockers of MgcRacGAP-driven Rac1 GTP hydrolysis – biochemical, ADP Hunter fluorescence, primary and confirmatory, confirmation (AID 624330). Type of assay: functional.

Assay [11] can be described thus: viability of uninfected HEp-2 cells – cell-based, HTS, cytotoxicity control for RSV inhibitor project, dose response (AID 2410). As to conditions: human respiratory syncytial virus. In kind it is functional.
Assay [12] is described as follows: viability of HCT116 lacking mutant beta-catenin – cell-based, human colon tumor, dose response (AID 1045).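 Further: HCT116 colon tumor cells with beta catenin knocked out; cells exposed to compound for 60 hours.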 Type of assay: functional.
The nature of assay [13]: viability of PTEN-deleted HCT116 cells – cell-based, HCT116 PTEN knockout, dose response (AID 1047).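 Further: HCT116 colon tumor cells with PTEN knocked out; cells exposed to compound for 60 hours before readout; potency for loss of cell viability measured by luminescence.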 In kind it is functional.
Assay [14] has as its system INS1. The assay is described as follows: INS-1E survival protection against cytokine death – cell-based, luminescence, retest, dose response (AID 449756).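 Further: cell death triggered by IL-1 beta plus TNF-alpha plus IFN-gamma mixture; protective hits raise ATP signal compared with cytokine alone wells.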 Type of assay: functional. As to conditions: Rattus norvegicus.
Assay [15] is described as follows: loss of viability in HepG2 cells – cell-based, CellTiter-Glo, cherry-picked, cytotoxicity control for Shn3 inhibitor project, dose response (AID 624134). In kind it is functional.
Assay [16] in a line: reduction of Shn3 3'UTR-driven luciferase in osteoblasts – cell-based, Clone20 osteoblasts, firefly luciferase, cherry-picked, dose response (AID 624132).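 Further: firefly luciferase luminescence from reporter carrying the Shn3 3'UTR in osteoblasts.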 In kind it is functional.
Assay [17] can be described thus: off-target signal loss in HeLa-CEM21 co-culture – HeLa F-luc CTL cells, cherry-picked, counter-screen for HIV-1 Env fusion inhibitor project, dose response (AID 652040).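 Further: potency for signal decrease marking cytotoxic or nonspecific inhibition.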 Type of assay: functional, cell-based.

Activity calls are given as the source filed them.

The record followed here is ChEMBL document CHEMBL1201862, “PubChem BioAssay data set” (2004).

Sequence of Large T antigen (P03070 whole entry): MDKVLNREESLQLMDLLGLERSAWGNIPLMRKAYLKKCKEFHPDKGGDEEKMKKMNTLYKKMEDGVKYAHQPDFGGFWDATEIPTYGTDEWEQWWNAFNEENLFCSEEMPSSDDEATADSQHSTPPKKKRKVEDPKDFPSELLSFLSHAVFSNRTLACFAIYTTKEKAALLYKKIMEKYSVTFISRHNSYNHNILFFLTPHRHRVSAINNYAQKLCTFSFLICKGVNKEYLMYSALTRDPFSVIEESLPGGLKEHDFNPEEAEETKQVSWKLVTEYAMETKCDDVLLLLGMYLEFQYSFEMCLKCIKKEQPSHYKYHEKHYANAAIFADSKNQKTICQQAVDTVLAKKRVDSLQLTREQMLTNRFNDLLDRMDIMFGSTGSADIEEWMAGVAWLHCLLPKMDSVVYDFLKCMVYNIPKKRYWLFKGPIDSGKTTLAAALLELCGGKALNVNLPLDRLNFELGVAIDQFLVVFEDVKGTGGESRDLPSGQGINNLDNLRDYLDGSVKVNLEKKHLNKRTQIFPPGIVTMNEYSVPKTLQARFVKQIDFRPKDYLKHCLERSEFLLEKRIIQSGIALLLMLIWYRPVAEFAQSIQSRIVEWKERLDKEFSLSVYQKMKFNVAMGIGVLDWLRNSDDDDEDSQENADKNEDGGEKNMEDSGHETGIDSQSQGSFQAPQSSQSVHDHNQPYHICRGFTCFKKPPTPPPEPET

Regarding `Cc1cc(-c2nnnn2-c2cc(Cl)cc(Cl)c2)no1`, the EC50 in [1] and in assay [2] was > 350 µM (not active) each time. In the case of `Cc1ccc(/C=C2\C(=O)NC(=S)N(c3cccc(F)c3)C2=O)o1`, the IC50 in assay [3] is 36.7 µM (active). In addition, the EC50 in assay [4] was 44.6 µM (active); in assay [5] it was 63.5 µM (active). In the case of `Cc1ccc(S(=O)(=O)N(C)C[C@@H]2Oc3ccc(NS(=O)(=O)c4ccc(Cl)cc4)cc3C(=O)N([C@@H](C)CO)C[C@H]2C)cc1`, the concentration at half-maximal activity (AC50) in [6] was 3.2 µM (active). Take `Nc1ncnc(O)c1/N=C/c1ccccc1`: the IC50 in [3] is 28.6 µM (active). As to `COc1cc2cnc(-c3ccccc3)c(-c3cc(OC)c(OC)c(OC)c3)c2cc1OC`, the IC50 in assay [7] is 67.2 µM (active). Consider `N#Cc1ccsc1NC(=O)COC(=O)CCS(=O)(=O)c1ccccc1`, for which, in assay [7], the IC50 was 8.32 µM (active). As to `COc1ccc(NC(=O)Nc2ccc3c(c2)CC(=O)N([C@H](C)CO)C[C@H](C)[C@@H](CN(C)CC2CCCCC2)O3)cc1`, the AC50 in assay [8] was 4.53 µM (active).

`C[C@@H]1CN([C@H](C)CO)S(=O)(=O)c2ccc(C#C[C@@H](C)O)cc2O[C@H]1CN(C)C(=O)Nc1ccccc1`: the AC50 in assay [8] was 13 µM (active). On to `Nc1ncc(-c2ccc(-c3ccccc3)cc2F)cc1-c1ccccc1F`, for which the IC50 in assay [9] is > 100 µM (inactive). With `Cc1ccc(C(=O)Nc2c3c(nn2C(C)(C)C)CS(=O)(=O)C3)cc1C`, the EC50 in assay [1] and in assay [2] was > 350 µM (not active) throughout. As to `N#CC1(NC(=O)COc2ccccc2[N+](=O)[O-])CCCCC1`, the IC50 in [7] was 18.7 µM (active). Take `COc1ccc(C2NN=C(c3ccc(C)cc3)S2)cc1` (stereo not drawn): the EC50 is > 350 µM (not active) in assay [1] and 24.6 µM (active) in [2]. As for `COc1ccccc1-c1ccccc1[C@H]1[C@H](C#N)N(C(=O)C2CCC2)[C@H]1CO`, in assay [8], the AC50 was 12 µM (active).

For the compound `CCCCNC(=O)COC(=O)c1cc(S(=O)(=O)N2CCCCCC2)ccc1OC`, the IC50 in [9] was > 100 µM (inactive). Regarding `Cc1ccc(C2C=NN(c3ccccc3)C2=O)cc1` (stereo not drawn), the values for the IC50 in assay [3] and in assay [10] were 31 µM (active) and 115 µM (active), respectively. Take `CC/N=c1\scc(C)n1/N=C/c1cc(Br)c(O)c(OC)c1`: the figures for the IC50 in assay [3] and in assay [10] were 8.55 µM (active) and 25.2 µM (active), respectively. Also, in assay [11], the CC50 was 15.6 µM (active). With `CCn1c(SCC(=O)Nc2cc(C)on2)nc2sc3c(c2c1=O)CCCC3`, the EC50 in assay [12] is 13.2 µM (active); in assay [13] it was 6.49 µM (active). Further, the half-maximal activity concentration (AC50) in assay [14] was 8.67 µM (active).

In the case of `C=C1C(=O)O[C@H]2[C@H]1[C@H](OC(=O)CC(=O)O[C@@H]1C[C@@H](C)[C@@H]3C=CC(=O)[C@@]3(C)[C@H]3OC(=O)C(=C)[C@H]13)C[C@@H](C)[C@H]1C=CC(=O)[C@]12C`, the values for the AC50 in assay [15] and in assay [16] were > 70 µM (inactive) and 1.54 µM (active), respectively. In addition, the IC50 in assay [3] was 52 µM (active). For the compound `C=CCOCCN1C(=O)C2C3C=CC(C2C1=O)C1C2C(=O)N(CCOCC=C)C(=O)C2C31` (stereo not drawn), in assay [7], the IC50 is 19.9 µM (active).

In the case of `CC(C(=O)Nc1ccccc1-c1ccccc1)N1CCN(C(=O)c2ccccc2)CC1` (stereo not drawn), the EC50 in [1] and in assay [2] was > 350 µM (not active) throughout. Consider `COc1ccc(NC(=O)Nc2ccc3c(c2)[C@H]2C[C@H](CC(=O)N4CCc5ccccc5C4)O[C@H](CO)[C@H]2O3)cc1`, for which the AC50 in assay [8] is 7.78 µM (active). With `COc1ccc(CC(=O)Nc2nnc(SCc3ccccc3)s2)cc1S(=O)(=O)N1CCOCC1`, in [9], the IC50 was > 100 µM (inactive). For the compound `Cc1cccc(N2C(=O)/C(=C/Nc3ccc(O)cc3)c3ccccc3C2=O)n1`, the IC50 in [3] was 7.67 µM (active). As to `CC(=O)c1ccc([C@H]2C[C@@]34CN(C(=O)OC(C)(C)C)S(=O)(=O)[C@H]3C[C@H]2O4)cc1`, the AC50 in assay [17] is 36.6 µM (active).

Turning to `O=C(O)c1cccc(S(=O)(=O)Nc2ccc3oc(=O)sc3c2)c1`, the IC50 in assay [3] is 46.3 µM (active). As to `CSc1ccc(-c2nnn(Cc3ccc(Br)cc3)n2)cc1`, the IC50 in assay [9] was > 100 µM (inactive). On to `Cc1ccc(NC(=O)N2CCC(NC(=O)c3cccc(C)c3)CC2)cc1`, for which the EC50 in [1] and in assay [2] was > 350 µM (not active) throughout. The IC50 in assay [7] is 10.5 µM (active). For `COc1ccc(-c2ccc([C@@H]3[C@H]4CN(C(=O)NC(C)C)CC(=O)N4[C@H]3CO)cc2)cc1`, the AC50 in assay [8] is 10 µM (active). As to `N=c1c2c(-c3ccccc3)c(-c3ccccc3)n(Cc3ccco3)c2ncn1CCO`, the EC50 was 1.27 µM (active) in assay [12] and 1.15 µM (active) in [13]. The corresponding values for `COc1ccc(NC2=NC(=S)N(c3ccc(C)cc3)C23CCCCC3)cc1` are 2.47 µM (active) and 3.42 µM (active). Consider `COc1ccc(S(=O)(=O)NCCSC(C)(C)C)c(Cl)c1Cl`, for which the IC50 in assay [7] was 8.61 µM (active). Regarding `Cc1ccc(NC(=O)CSc2ncc3ccccn23)cc1`, the EC50 was > 350 µM (not active) in assay [1] and 41.4 µM (active) in assay [2]. `O=C(Nc1cccc([N+](=O)[O-])c1)c1cnccn1`: in [7], the IC50 was 5.88 µM (active). Regarding `CCOC(=O)/C(=N\Nc1ccc(F)cc1)C(=O)c1ccc([N+](=O)[O-])cc1`, the EC50 in assay [1] and in assay [2] was > 350 µM (not active) each time.
